The text below walks through data of patent US20030232013A1, “Therapeutic and diagnostic targeting of cancers cells with tumor homing peptides” (priority 2002, published 2003).

Broadly, the IC50 is the concentration that inhibits the measured activity by half. One may read the Kd as the constant that tells how readily two partners part at equilibrium. The low end stands for tighter binding, the high end for weaker binding.

Where a name gives a salt, the structure may show the parent alone. Read-outs that look alike come from different tables or passages of the source. Numbered stars: 1 amine (or outer) side, 2 acyl side, 3 side chain; on linkers, the order of the positions; unused ones are H or OH. Bridge positions count the residues as written; N and C are the ends. Square brackets hold non-standard residues; d marks the D form. Peptide text beside a SMILES is read from it. I, II: the chains in the order shown. * marks the point of attachment. Actinocin(9to1) = Cc1c2oc3c(C)ccc(C(=O)[*:1])c3nc-2c(C(=O)[*:2])c(N)c1=O; DOTA = O=C(O)CN1CCN(CC(=O)O)CCN(CC(=O)*)CCN(CC(=O)O)CC1; NMeV = CN[C@H](C(=O)O)C(C)C; Ahx = NCCCCCC(=O)O; Sar = CNCC(=O)O

The conditions of series [1]: in vivo; cited from earlier work.
Series [2] relates to chronic myelogenous leukemia. The note with it: previously untreated chronic myelogenous leukemia; cited from earlier work.
For series [3] the following is noted: cited from earlier work.
For series [4] the following is noted: cited from earlier work. This is another data set of the same source.
For series [5] the following is noted: in vivo; cited from earlier work. This is another data set of the same source.
The subject of series [6] is T47D (Human) breast cancer cells. The experiment in a line: In vitro competitive cell binding assay, T47D. To be noted: competitive binding vs. ^125I-Tyr^5-6-Ahx-Phe^19-STh or ^125I-Tyr^5-Phe^19-STh; read-out: In vitro IC50, Breast T47D (Human). As to the method: (§1) In Vitro Competitive Cell Binding Assay. The IC50 values of both metallated and non-metallated STh conjugates were determined in human cancer cells by a competitive displacement cell binding assay using ^125I-STh (^125I-Tyr^5-Phe^19-STh or ^125I-Tyr^5-6-Ahx-Phe^19-STh). […] After the incubation, the reaction medium was aspirated and cells were washed three times with media. The radioactivity bound to the cells was counted in a Packard Riastar gamma counting system. The ^125I-STh bound to cells was plotted vs. increasing concentrations of STh conjugate to determine the respective IC50 values (Table 3). For statistical considerations, three separate in vitro cell binding experiments with each conjugate were performed in duplicate.

Series [7] has as its system MB-231 (Human) breast cancer cells. Briefly: In vitro competitive cell binding assay, MB-231. The note with it: competitive binding vs. ^125I-Tyr^5-6-Ahx-Phe^19-STh or ^125I-Tyr^5-Phe^19-STh; read-out: In vitro IC50, Breast MB-231 (Human). As to the method: as §1
For series [8], the system named is MCF-7 (Human) breast cancer cells. The experiment in a line: In vitro competitive cell binding assay, MCF-7. The note with it: competitive binding vs. ^125I-Tyr^5-6-Ahx-Phe^19-STh or ^125I-Tyr^5-Phe^19-STh. As to the method: as §1
Series [9] deals with CFPAC-1 (Human) pancreatic cancer cells. The experiment in a line: In vitro competitive cell binding assay, CFPAC-1. To be noted: competitive binding vs. ^125I-Tyr^5-6-Ahx-Phe^19-STh or ^125I-Tyr^5-Phe^19-STh. On the procedure: as §1
The subject of series [10] is PC-3 (Human) prostate cancer cells. The experiment in a line: In vitro competitive cell binding assay, PC-3. To be noted: competitive binding vs. ^125I-Tyr^5-6-Ahx-Phe^19-STh or ^125I-Tyr^5-Phe^19-STh. As to the method:
as §1

The subject of series [11] is A375 (Human) melanoma cells. The experiment in a line: In vitro competitive cell binding assay, A375. The note with it: competitive binding vs. ^125I-Tyr^5-6-Ahx-Phe^19-STh or ^125I-Tyr^5-Phe^19-STh. As to the method: as §1
For series [12] the following is noted: in vivo, cited from earlier work.
For series [13] the following is noted: in vivo; cited from earlier work. The source holds these as a separate data set.
The conditions of series [14]: oral radioactive lomustine, cited from earlier work.
For series [15], the system named is multiple myeloma. The note with it: oral administration; cited from earlier work.
The conditions of series [16]: humans, cited from earlier work.
The test system of series [17] is Hodgkin's disease. To be noted: cited from earlier work.
For series [18] the following is noted: cited from earlier work. The source holds these as a separate data set.
The test system of series [19] is T-47D cells. Briefly: Scatchard analysis, T-47D. Type of series: binding, human. On the procedure:
(§2) Scatchard Analysis. Scatchard analysis was performed in human cancer cells by a receptor-binding assay using ^125I-STh and 6-Ahx-Phe^19-STh or Phe^19-STh. […] After the incubation, the reaction medium was aspirated and cells were washed three times with media. The radioactivity bound to the cells was counted in a Packard Riastar gamma counting system. The experiment was performed in duplicate and average values were used for the calculations. The total bound peptide (B, both radioactive and non-radioactive), was obtained by multiplying the fraction of bound labeled peptide with the total concentration of peptide (both radioactive and non-radioactive). The total free peptide (F, both radioactive and non-radioactive) was obtained by substracting the total bound peptide from the total concentration of peptide. The non-specific binding was neglected in the calculations as it was <3%. The ratio of concentration of total bound and total free peptide (B/F) was plotted vs. total bound peptide (B) to determine the Kd (−1/slope) and Bmax (X-intercept) values. The number of receptors per cell was calculated from the Bmax (Table 4).

Series [20] deals with MB-231 cells. The experiment in a line: Scatchard analysis, MB-231. The series is classed as binding, human. On the procedure:
as §2

[21] abbreviates: single oral doses of about 0.6 mg/kg to about […].
Setting [22] is: at equilibrium, calculated using Bmax value.

For the compound `Cc1c2oc3c(C)ccc(C(=O)N[C@@H]4C(=O)N[C@H](C(C)C)C(=O)N5CCC[C@H]5C(=O)N(C)CC(=O)N(C)[C@@H](C(C)C)C(=O)O[C@@H]4C)c3nc-2c(C(=O)N[C@@H]2C(=O)N[C@H](C(C)C)C(=O)N3CCC[C@H]3C(=O)N(C)CC(=O)N(C)[C@@H](C(C)C)C(=O)O[C@@H]2C)c(N)c1=O` [Actinomycin D] (I: T[dV]P[Sar][NMeV] / II: T[dV]P[Sar][NMeV]; ester I:1-I:C, II:1-II:C; linker I:N-II:N via Actinocin(9to1)), in series [1], the “dose excreted intact into the bile” value is reported as “Half of the dose”, the “dose excreted intact into the urine” value was 10%, the half-life entry is “about 36 hours” and the “passage of the blood-brain barrier” value is listed as “does not pass the blood-brain barrier”.

Turning to `CS(=O)(=O)OCCCCOS(C)(=O)=O` [Busulfan, 1,4-butanediol dimethanesulfonate], the “adults obtaining hematologic remission with regression or stabilization of organomegaly” value in series [2] is listed as “Approximately 90%”.

`O=NN(CCCl)C(=O)NCCCl` [Carmustine, 1,3 bis(2-chloroethyl)-1-nitrosourea]: in series [3] (alcohol and lipids), the “solubility in alcohol and lipids” value is “highly soluble”. Further, the “solubility in water” value in series [3] is “poorly soluble in water”.

`O=C(O)CCCc1ccc(N(CCCl)CCCl)cc1` [Chlorambucil, 4-[bis(2-chlorethyl)amino] benzenebutanoic acid]: the “absorption from the gastrointestinal tract” value in series [4] (oral, tablet) was “rapidly and completely absorbed”. Moreover, in [4] (setting [21]), the “terminal half-life of the parent drug” value is reported as “about 1.5 hours” and the “time to peak plasma chlorambucil levels” value is reported as “within one hour”.

On to `N.N.[Cl][Pt][Cl]` [Cisplatin], for which the oral absorption entry in series [5] is “not absorbed orally”.

With `CC(C)C[C@@H]1NC(=O)[C@H](CCC(=O)O)NC(=O)[C@@H]2CSSC[C@@H]3NC(=O)[C@H](C)NC(=O)[C@@H]4CCCN4C(=O)[C@H](CC(N)=O)NC(=O)[C@H](CSSC[C@H](NC(=O)[C@H](Cc4ccc(O)cc4)NC(=O)[C@H](CC(N)=O)NC(=O)[C@H](CO)NC(=O)[C@H](CO)NC(=O)[C@H](CC(N)=O)NC(=O)CCCCCNC(=O)CN4CCN(CC(=O)O)CCN(CC(=O)O)CCN(CC(=O)O)CC4)C(=O)N2)NC(=O)[C@H](CSSC[C@@H](C(=O)N[C@@H](Cc2ccccc2)C(=O)O)NC(=O)CNC(=O)[C@H]([C@@H](C)O)NC3=O)NC1=O` [DOTA-6-Ahx-Phe^19-STh] ({DOTA-Ahx}-NSSNYCCELCCNPACTGCF-OH; disulfide 6-11, 7-15, 10-18), the IC50 in [6] amounted to 0.5 nM; in [7], 3.9 nM; in series [8] it was 14.1 nM; in [9], 2.8 nM; in series [10], 7 nM; in [11] it was 1.5 nM.

Regarding `COc1cccc2c1C(=O)c1c(O)c3c(c(O)c1C2=O)C[C@@](O)(C(C)=O)C[C@@H]3O[C@H]1C[C@H](N)[C@H](O)[C@H](C)O1` [Daunorubicin, 5,12-Naphthacenedione, (8S-cis)-8-acetyl-10-[(3-amino-2,3,6-trideoxy-a-L-lyxo-hexanopyranosyl)oxy]-7,8,9,10-tetrahydro-6,8,11-trihydroxy-10-methoxy-, hydrochloride], the oral absorption result in [12] (po) is recorded as “poor”. In addition, the half-life of elimination entry in series [12] was “about 19 hours”.

Regarding `COc1cccc2c1C(=O)c1c(O)c3c(c(O)c1C2=O)C[C@@](O)(C(=O)CO)C[C@@H]3O[C@H]1C[C@H](N)[C@H](O)[C@H](C)O1` [Doxorubicin, 5,12-Naphthacenedione, (8s-cis)-10-[(3-amino-2,3,6-trideoxy-a-L-lyxo-hexopyranosyl)oxy]-7,8,9,10-tetrahydro-6,8, 11-trihydroxy-8-(hydroxyacetyl)-1-methoxy-hydrochloride], in series [13], the absorption entry was “absorbed poorly” and the elimination half-life result is “about 30 hours”.

For the compound `CC(C)C[C@@H]1NC(=O)[C@H](CCC(=O)O)NC(=O)[C@@H]2CSSC[C@@H]3NC(=O)[C@H](C)NC(=O)[C@@H]4CCCN4C(=O)[C@H](CC(N)=O)NC(=O)[C@H](CSSC[C@H](NC(=O)[C@H](Cc4ccc(O)cc4)NC(=O)[C@H](CC(N)=O)NC(=O)[C@H](CO)NC(=O)[C@H](CO)NC(=O)[C@H](CC(N)=O)NC(=O)CN4CCN(CC(=O)O)CCN(CC(=O)O)CCN(CC(=O)O)CC4)C(=O)N2)NC(=O)[C@H](CSSC[C@@H](C(=O)N[C@@H](Cc2ccccc2)C(=O)O)NC(=O)CNC(=O)[C@H]([C@@H](C)O)NC3=O)NC1=O` [In-DOTA-Phe^19-STh] ({DOTA}-NSSNYCCELCCNPACTGCF-OH; disulfide 6-11, 7-15, 10-18), in [6], the concentration for half-maximal inhibition (IC50) was determined as 8.9 ± 2.2 nM.

`O=NN(CCCl)C(=O)NC1CCCCC1` [Lomustine, 1-(2-chloro-ethyl)-3-cyclohexyl-1 nitrosourea]: the “radioactivity excreted in the form of degradation products within 24 hours” value in series [14] (about 30 mg/m^2 to 100 mg/m^2) is listed as “about half”. In [14], the “serum half-life of the metabolites” value is recorded as “about 16 hours to about 2 days”. The “solubility in 10% ethanol” value in [3] (10% ethanol) is reported as “about 0.05 mg/mL”. The “solubility in absolute alcohol” value in series [3] (absolute alcohol) was “about 70 mg/mL”. Moreover, the “ionization at physiological pH” value in series [3] (physiological pH) is reported as “relatively unionized”. For the same compound, in [3], the solubility in water entry is listed as “less than 0.05 mg/mL”.

`N[C@@H](Cc1ccc(N(CCCl)CCCl)cc1)C(=O)O` [Melphalan, 4-[bis(2-chloroethyl)amino]-L-phenylalanine]: the “patients with multiple myeloma showing a favorable response” value in series [15] is “about one third to one half”. Besides, in series [3], the “solubility in water” value is recorded as “insoluble in water”.

On to `CO[C@@]12[C@H](COC(N)=O)C3=C(C(=O)C(C)=C(N)C3=O)N1C[C@@H]1N[C@@H]12` [Mitomycin], for which the “time required to reduce the serum concentration by about 50%” value in [16] (30 mg bolus injection) is 17 min. For the same compound, the “dose excreted unchanged in the urine” value in series [16] was “Approximately 10%”.

Regarding `COc1cccc2c1C(=O)c1c(O)c3c(c(O)c1C2=O)C[C@@](O)([C@H](C)O)C[C@@H]3O[C@H]1C[C@H](N)[C@H](O)[C@H](C)O1` [daunorubicinol], the “half-life of active metabolite” value in series [12] is “about 27 hours”.

`CC[C@]1(O)C[C@@H]2CN(CCc3c([nH]c4ccccc34)[C@@](C(=O)OC)(c3cc4c(cc3OC)N(C)[C@H]3[C@@](O)(C(=O)OC)[C@H](OC(C)=O)[C@]5(CC)C=CCN6CC[C@]43[C@@H]65)C2)C1` [vinblastine]: the “cases with significant improvement” value in series [17] is recorded as 50 to 90%. Also, in [18] (intravenous injection), the “half-life of disappearance from plasma after distribution” value was ~20 h and the “half-life of disappearance from plasma after distribution (first given)” value is “approximately 1 hours”.

As to `CC[C@]1(O)C[C@H]2CN(CCc3c([nH]c4ccccc34)[C@@](C(=O)OC)(c3cc4c(cc3OC)N(C=O)[C@H]3[C@@](O)(C(=O)OC)[C@H](OC(C)=O)[C@]5(CC)C=CCN6CC[C@]43[C@@H]65)C2)C1` [vincristine], the “terminal half-life (plasma)” value in series [18] (in vivo) is listed as “about 24 hours”.

As to ^125I-Tyr^5-6-Ahx-Phe^19-STh, the results for the Kd in series [19] (Scatchard plot) and in series [20] (Scatchard plot) were 4.4 nM and 4 nM, respectively. Besides, the “No. of receptors per cell” value in [19] (setting [22]) is on record as 41,758; in series [20] (setting [22]), 112,786.
